# According to US20100074870A1, “Probiotic infant products” (priority 2008, published 2010):
# Tested on: B. longum AH1206
# Test: Antibiotic sensitivity, minimum inhibitory concentration (MIC)
# Settings: antibiotic against B. longum AH1206; unit not given
row,minimum inhibitory concentration (MIC),Compound
1,0.32,CCC[C@@H]1C[C@@H](C(=O)N[C@@H]([C@H]2O[C@H](SC)[C@H](O)[C@@H](O)[C@H]2O)[C@H](C)Cl)N(C)C1 [clindamycin]
2,0.38,Cc1ncc([N+](=O)[O-])n1CCO [metronidazole]

row,Compound,minimum inhibitory concentration (MIC)
1,CN[C@H](CC(C)C)C(=O)N[C@H]1C(=O)N[C@@H](CC(N)=O)C(=O)N[C@H]2C(=O)N[C@H]3C(=O)N[C@H](C(=O)N[C@H](C(=O)O)c4cc(O)cc(O)c4-c4cc3ccc4O)[C@H](O)c3ccc(c(Cl)c3)Oc3cc2cc(c3O[C@@H]2O[C@H](CO)[C@@H](O)[C@H](O)[C@H]2O[C@H]2C[C@](C)(N)[C@H](O)[C@H](C)O2)Oc2ccc(cc2Cl)[C@H]1O [vancomycin],0.75
